Patent publication US6462038B1, “Androgen receptor modulator compounds and methods” (Ligand Pharmaceuticals, Inc., priority 1999, dated 2002)

Experiments:
Type in all cases: cell-based
[1] = molecular target: T1, hAR (Homo sapiens, UniProt P10275); test: co-transfection assay, AR antagonist (in presence of DHT), CV-1 cells; settings: for AR Antagonist CV-1 Cells Efficacy (%): hAR in CV-1 cells, maximal inhibition, DHT at EC50
T1 construct: expressed in transfected cells; host or cells: CV-1 cells (African green monkey kidney fibroblasts)
T1 sequence (P10275 1-920): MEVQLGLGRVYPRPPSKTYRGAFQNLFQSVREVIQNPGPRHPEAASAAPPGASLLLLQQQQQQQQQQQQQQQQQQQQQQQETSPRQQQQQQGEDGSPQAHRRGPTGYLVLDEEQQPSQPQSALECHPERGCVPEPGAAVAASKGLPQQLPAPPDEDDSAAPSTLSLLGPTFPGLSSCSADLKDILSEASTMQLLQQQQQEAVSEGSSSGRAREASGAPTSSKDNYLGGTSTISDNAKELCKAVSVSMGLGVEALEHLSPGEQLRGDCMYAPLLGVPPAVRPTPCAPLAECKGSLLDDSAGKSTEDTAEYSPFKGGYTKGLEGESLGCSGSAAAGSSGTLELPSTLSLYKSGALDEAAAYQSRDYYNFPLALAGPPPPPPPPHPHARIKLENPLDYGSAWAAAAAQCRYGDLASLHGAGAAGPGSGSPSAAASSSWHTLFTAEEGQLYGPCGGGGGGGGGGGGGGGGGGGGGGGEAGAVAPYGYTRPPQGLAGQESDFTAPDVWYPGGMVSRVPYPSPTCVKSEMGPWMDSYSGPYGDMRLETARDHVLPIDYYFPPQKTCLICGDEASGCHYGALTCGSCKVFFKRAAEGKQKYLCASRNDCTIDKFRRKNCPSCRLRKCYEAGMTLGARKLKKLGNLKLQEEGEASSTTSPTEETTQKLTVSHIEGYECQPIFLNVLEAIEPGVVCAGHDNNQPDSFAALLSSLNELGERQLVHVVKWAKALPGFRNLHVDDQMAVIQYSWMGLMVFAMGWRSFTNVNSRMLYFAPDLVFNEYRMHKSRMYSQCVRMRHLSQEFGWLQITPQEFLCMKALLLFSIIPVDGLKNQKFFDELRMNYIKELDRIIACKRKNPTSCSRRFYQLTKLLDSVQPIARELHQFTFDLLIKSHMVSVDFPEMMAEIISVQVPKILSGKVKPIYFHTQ

[2] = molecular target: T2, GR (Homo sapiens, UniProt P04150); test: co-transfection assay, GR antagonist
T2 construct: expressed in transfected cells; host or cells: CV-1 cells
T2 sequence (P04150 1-777): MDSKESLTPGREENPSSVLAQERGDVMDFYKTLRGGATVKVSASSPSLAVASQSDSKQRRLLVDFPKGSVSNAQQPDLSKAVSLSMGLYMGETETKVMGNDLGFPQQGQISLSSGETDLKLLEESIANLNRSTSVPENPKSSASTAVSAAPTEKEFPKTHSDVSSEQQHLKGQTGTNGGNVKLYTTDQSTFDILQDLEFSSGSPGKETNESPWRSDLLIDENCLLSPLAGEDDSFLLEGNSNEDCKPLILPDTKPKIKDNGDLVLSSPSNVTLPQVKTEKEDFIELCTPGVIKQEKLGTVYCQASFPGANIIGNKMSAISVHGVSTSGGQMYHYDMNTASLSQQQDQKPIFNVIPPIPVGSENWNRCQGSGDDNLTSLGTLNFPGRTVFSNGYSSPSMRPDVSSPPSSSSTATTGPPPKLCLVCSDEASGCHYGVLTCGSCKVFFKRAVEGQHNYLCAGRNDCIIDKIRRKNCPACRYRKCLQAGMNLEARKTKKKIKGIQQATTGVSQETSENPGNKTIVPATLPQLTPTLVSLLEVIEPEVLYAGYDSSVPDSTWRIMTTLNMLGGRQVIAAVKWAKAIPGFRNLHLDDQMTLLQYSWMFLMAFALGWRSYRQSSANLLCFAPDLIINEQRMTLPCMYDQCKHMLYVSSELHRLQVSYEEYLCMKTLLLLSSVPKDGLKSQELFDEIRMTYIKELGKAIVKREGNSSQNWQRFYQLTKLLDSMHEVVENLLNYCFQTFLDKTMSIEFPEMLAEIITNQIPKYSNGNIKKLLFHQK
Experimental: (§1) CV-1 cells (African green monkey kidney fibroblasts) were cultured in the presence of Dulbecco's Modified Eagle Medium (DMEM) supplemented with 10% charcoal resin-stripped fetal bovine serum (CH-FBS) then transferred to 96-well microtiter plates one day prior to transfection.
(§2) Three to four replicates were used for each sample.
(§3) After 40 hours, the cells were washed with PBS, lysed with a Triton X-100-based buffer and assayed for LUC and β-Gal activities using a luminometer or spectrophotometer, respectively. For each replicate, the normalized response (NR) was calculated as: […]

[3] = molecular target: T3, PR (Homo sapiens, UniProt P06401); test: co-transfection assay, PR antagonist (in presence of progesterone)
T3 construct: expressed in transfected cells; host or cells: CV-1 cells
T3 sequence (P06401 1-933): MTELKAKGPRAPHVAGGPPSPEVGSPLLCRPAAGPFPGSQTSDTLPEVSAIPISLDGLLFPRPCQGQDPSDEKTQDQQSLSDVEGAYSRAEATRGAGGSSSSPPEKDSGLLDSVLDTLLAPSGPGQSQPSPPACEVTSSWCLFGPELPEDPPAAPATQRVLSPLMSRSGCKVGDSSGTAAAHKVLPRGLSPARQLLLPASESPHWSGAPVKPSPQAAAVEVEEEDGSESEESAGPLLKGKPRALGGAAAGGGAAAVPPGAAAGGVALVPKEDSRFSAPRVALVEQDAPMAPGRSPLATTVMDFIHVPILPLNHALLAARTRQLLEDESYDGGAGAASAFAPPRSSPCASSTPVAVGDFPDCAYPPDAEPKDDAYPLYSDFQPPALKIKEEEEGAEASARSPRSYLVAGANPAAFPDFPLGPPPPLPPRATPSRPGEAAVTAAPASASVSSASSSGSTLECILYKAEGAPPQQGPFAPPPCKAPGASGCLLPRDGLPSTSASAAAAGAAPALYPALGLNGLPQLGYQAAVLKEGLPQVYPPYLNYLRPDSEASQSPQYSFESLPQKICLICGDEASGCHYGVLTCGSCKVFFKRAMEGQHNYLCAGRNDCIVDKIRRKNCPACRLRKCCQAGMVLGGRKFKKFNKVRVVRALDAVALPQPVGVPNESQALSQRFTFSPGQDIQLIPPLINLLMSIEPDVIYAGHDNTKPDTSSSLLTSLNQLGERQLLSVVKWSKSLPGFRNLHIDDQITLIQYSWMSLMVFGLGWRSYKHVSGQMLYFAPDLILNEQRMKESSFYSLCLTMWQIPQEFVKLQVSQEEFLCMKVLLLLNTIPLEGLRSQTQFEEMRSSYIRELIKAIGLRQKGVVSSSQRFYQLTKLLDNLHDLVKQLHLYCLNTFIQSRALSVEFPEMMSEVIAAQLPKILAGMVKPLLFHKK
Experimental: as §1, §2, §3

[4] = molecular target: T4, ER (Homo sapiens, UniProt P03372); test: co-transfection assay, ER agonist
T4 construct: expressed in transfected cells; host or cells: CV-1 cells
Experimental: as §1, §2, §3

[5] = molecular target: T4, ER; test: co-transfection assay, ER antagonist
Experimental: as §1, §2, §3

T4 sequence (P03372 whole entry): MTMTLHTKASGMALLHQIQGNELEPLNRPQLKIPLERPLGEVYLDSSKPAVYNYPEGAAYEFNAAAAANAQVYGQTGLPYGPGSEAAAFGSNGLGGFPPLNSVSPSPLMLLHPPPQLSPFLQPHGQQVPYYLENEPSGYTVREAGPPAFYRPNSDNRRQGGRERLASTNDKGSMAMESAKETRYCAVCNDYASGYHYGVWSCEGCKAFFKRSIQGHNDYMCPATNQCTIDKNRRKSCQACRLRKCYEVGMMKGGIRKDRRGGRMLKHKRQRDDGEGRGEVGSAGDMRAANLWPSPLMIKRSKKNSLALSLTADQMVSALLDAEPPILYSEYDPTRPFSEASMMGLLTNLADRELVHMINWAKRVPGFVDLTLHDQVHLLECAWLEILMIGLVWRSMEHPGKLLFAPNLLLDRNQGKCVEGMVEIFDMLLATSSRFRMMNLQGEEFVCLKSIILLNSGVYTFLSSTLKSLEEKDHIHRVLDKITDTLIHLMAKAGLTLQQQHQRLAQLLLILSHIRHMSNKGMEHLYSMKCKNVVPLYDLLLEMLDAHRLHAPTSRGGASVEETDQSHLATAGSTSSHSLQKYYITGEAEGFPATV

Structure (SMILES)	IC50 [1] [µM]	AR Antagonist CV-1 Cells Efficacy (%) [1] [%]	IC50 [2] [µM]	IC50 [3] [µM]	EC50 [4] [µM]	IC50 [5] [µM]
CCN1CCOc2cc3c(cc21)c(C(F)(F)F)cc(=O)n3C [Compound 104, 1-Ethyl-1,2,3,6-tetrahydro-6-methyl-9-(trifluoromethyl)-7H-[1,4]oxazino[3,2-g]quinolin-7-one]	0.026	68	0.83	2	> 10	> 10
O=c1cc(C(F)(F)F)c2cc3c(cc2[nH]1)OCCN3CC(F)(F)F [Compound 105, 1,2,3,6-Tetrahydro-1-(2,2,2-trifluoroethyl)-9-(trifluoromethyl)-7H-[1,4]oxazino[3,2-g]quinolin-7-one]			6.7	3	> 10	> 10
O=C1COc2cc3[nH]c(=O)cc(C(F)(F)F)c3cc2N1CC(F)(F)F [Compound 137, 1,6-Dihydro-1-(2,2,2-trifluoroethyl)-9-(trifluoromethyl)-3H-[1,4]oxazino[3,2-g]-quinolin-2,7-dione]	0.018	84	> 10	> 10	> 10	> 10
CN1CCOc2cc3c(cc21)c(C(F)(F)F)cc(=O)n3C [Compound 102, 1,2,3,6-Tetrahydro-1,6-dimethyl-9-(trifluoromethyl)-7H-[1,4]oxazino[3,2-g]quinolin-7-one]	0.022	58	3.2	4.1	> 10	5.9
